Test results published in ChEMBL document CHEMBL4837259, “Comprehensive Approach of 19F Nuclear Magnetic Resonance, Enzymatic, and In Silico Methods for Site-Specific Hit Selection and Validation of Fragment Molecules that Inhibit Methionine γ-Lyase Activity” (J Med Chem, 2021).
Activity calls are given as the source filed them. The calls are words filed in the database; no cut-off is given here.

How the values were obtained:
[1] = target: T1, L-methionine gamma-lyase (Fusobacterium nucleatum subsp. nucleatum) (UniProt Q8RDT4); experiment: Inhibition of Fusobacterium nucleatum ATCC 25586 recombinant wild type MGL expressed in Escherichia coli BL21 (DE3) assessed as decrease in signal intensity by 19F NMR based competition assay relative to control; parameters: concentration or dose not given beside the values
T1 sequence (whole entry): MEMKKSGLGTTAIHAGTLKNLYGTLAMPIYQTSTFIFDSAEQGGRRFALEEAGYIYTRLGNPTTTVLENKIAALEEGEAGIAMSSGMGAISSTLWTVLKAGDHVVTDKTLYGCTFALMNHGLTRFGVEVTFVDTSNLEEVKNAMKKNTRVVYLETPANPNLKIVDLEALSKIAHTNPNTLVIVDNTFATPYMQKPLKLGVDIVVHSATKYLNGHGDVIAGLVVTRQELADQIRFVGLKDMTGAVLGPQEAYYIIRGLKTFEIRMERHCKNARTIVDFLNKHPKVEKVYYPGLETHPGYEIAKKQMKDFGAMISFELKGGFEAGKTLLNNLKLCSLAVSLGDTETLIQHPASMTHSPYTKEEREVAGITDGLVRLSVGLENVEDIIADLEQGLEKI

[2] = target: T1, L-methionine gamma-lyase (Fusobacterium nucleatum subsp. nucleatum); experiment: Inhibition of Fusobacterium nucleatum ATCC 25586 recombinant wild type MGL expressed in Escherichia coli BL21 (DE3) assessed as formation of 2-ketobutyrate using L-methionine as substrate by enzymatic assay; parameters: concentration or dose not given beside the values; conditions: concentration not given here
[3] = tested on: Fusobacterium nucleatum; experiment: Inhibition of Fusobacterium nucleatum ATCC 25586 recombinant MGL Y56F mutant expressed in Escherichia coli BL21 (DE3) assessed as decrease in signal intensity by measuring recovery ratio by 19F NMR based competition assay relative to wild type; parameters: concentration or dose not given beside the values
[4] = tested on: Fusobacterium nucleatum; experiment: Inhibition of Fusobacterium nucleatum ATCC 25586 recombinant MGL R58A mutant expressed in Escherichia coli BL21 (DE3) assessed as decrease in signal intensity by measuring recovery ratio by 19F NMR based competition assay relative to wild type; parameters: scale not given: the % may be the effect or the level left
[5] = tested on: Fusobacterium nucleatum; experiment: Inhibition of Fusobacterium nucleatum ATCC 25586 recombinant MGL R58K mutant expressed in Escherichia coli BL21 (DE3) assessed as decrease in signal intensity by measuring recovery ratio by 19F NMR based competition assay relative to wild type; parameters: scale not given: the % may be the effect or the level left
[6] = tested on: Fusobacterium nucleatum; experiment: Inhibition of Fusobacterium nucleatum ATCC 25586 recombinant MGL Y111F mutant expressed in Escherichia coli BL21 (DE3) assessed as decrease in signal intensity by measuring recovery ratio by 19F NMR based competition assay relative to wild type; parameters: concentration or dose not given beside the values
[7] = tested on: Fusobacterium nucleatum; experiment: Inhibition of Fusobacterium nucleatum ATCC 25586 recombinant MGL C113S mutant expressed in Escherichia coli BL21 (DE3) assessed as decrease in signal intensity by measuring recovery ratio by 19F NMR based competition assay relative to wild type; parameters: scale not given: the % may be the effect or the level left
[8] = tested on: Fusobacterium nucleatum; experiment: Inhibition of Fusobacterium nucleatum ATCC 25586 recombinant MGL K238A mutant expressed in Escherichia coli BL21 (DE3) assessed as decrease in signal intensity by measuring recovery ratio by 19F NMR based competition assay relative to wild type; parameters: concentration or dose not given beside the values
[9] = tested on: Fusobacterium nucleatum; experiment: Inhibition of Fusobacterium nucleatum ATCC 25586 recombinant MGL R373A mutant expressed in Escherichia coli BL21 (DE3) assessed as decrease in signal intensity by measuring recovery ratio by 19F NMR based competition assay relative to wild type; parameters: scale not given: the % may be the effect or the level left
[10] = tested on: Fusobacterium nucleatum; experiment: Inhibition of Fusobacterium nucleatum ATCC 25586 recombinant MGL R373K mutant expressed in Escherichia coli BL21 (DE3) assessed as decrease in signal intensity by measuring recovery ratio by 19F NMR based competition assay relative to wild type; parameters: concentration or dose not given beside the values

Row | SMILES | Activity [1] [%] | inhibition [2] [%] | Activity [3] | Activity [4] | Activity [5] | Activity [6] | Activity [7] | Activity [8] | Activity [9] | Activity [10]
1 | O=C(O)c1ccc(OC(F)F)nc1 | 78 | 12.6 | 80% | 50% | 50% | Active | Active | Active | 80% | Active
2 | CC(C)(C)OC(=O)N1CCC(CN)(c2ccccc2F)CC1 | 77 | 17.2 | 80% | 50% | 50% | Active | 50% | Active | inactive | Active
3 | COCCOc1ccc(C(=O)O)cc1C(F)(F)F | 67 | 16.2 | 80% | 80% | 80% | 80% | 50% | Active | 80% | 50%
4 | O=C(O)c1ccnc(OC(F)(F)F)c1 | 76 | 22.3 | 80% | 80% | 80% | 50% | Active | 50% | 80% | 50%
5 | CC(C)(C)OC(=O)N1CCC(CN)(Cc2ccc(C(F)(F)F)cc2)CC1 | 78 | 78.3 | 80% | 50% | 50% | Active | 50% | Active | Active | Active
6 | O=C(O)c1cnc(OCC(F)(F)F)cn1 | 49 | 4.4 | 80% | 80% | 80% | Active | Active | 50% | 80% | Active
7 | O=C(O)c1ccnc(OC(F)F)c1 | 67 | 1.5 | 80% | 80% | 80% | Active | 50% | Active | 80% | 50%
8 | CC(C)(C)OC(=O)N[C@H]1CC[C@H](N2Cc3ccc(F)cc3C2=O)CC1 | 70 | -1.2 | 50% | Active | 50% | Active | 50% | Active | Active | Active
9 | O=C(O)c1cc(C(F)(F)F)nn1Cc1ccccc1 | 41 | 14.5 | 50% | 80% | 80% | 50% | inactive | Active | 50% | 50%
10 | O=C(O)c1cn(-c2cccc(F)c2)cn1 | 36 | -4.1 | 80% | 80% | 80% | inactive | Active | inactive | 80% | inactive
11 | CC(C)(C)OC(=O)N1CCC(CN)(c2ccc(F)cc2)CC1 | 20 | 12.9 | 80% | 50% | 50% | 50% | Active | 50% | Active | Active
12 | CC(C)(C)OC(=O)N[C@H]1CC[C@H](N2Cc3cccc(F)c3C2=O)CC1 | 100 | 53.7 | 50% | Active | Active | Active | Active | Active | Active | Active
13 | CC(C)(Cc1ccc(C(F)(F)F)cc1)C(=O)O | 55 | 8.3 | 80% | 80% | 50% | 80% | Active | 80% | 50% | inactive
14 | CC(C)(C)OC(=O)N1CCC(CN)(Cc2ccc(F)cc2)CC1 | 70 | 27.7 | 80% | Active | 50% | inactive | 50% | inactive | Active | Active
15 | O=C(O)c1cn(-c2ccccc2F)cn1 | 26 | -5.3 | Active | 80% | 80% | Active | Active | inactive | 50% | Active
16 | O=C(O)c1cn(-c2ccc(F)cc2)cn1 | 58 | 6.2 | Active | 80% | 80% | Active | 50% | Active | 80% | Active
17 | CC(C)(CC(=O)O)c1ccc(F)cc1 | 57 | -3.3 | 80% | 80% | 80% | 80% | inactive | 50% | 80% | inactive
18 | O=C(O)c1ccc(OCC(F)(F)F)cn1 | 40 | 15 | 80% | 80% | 80% | 80% | 80% | 50% | 80% | Active
19 | O=C(O)c1cn(-c2ccc(C(F)(F)F)cc2)cn1 | 87 | 45.3 | 80% | 50% | 80% | 50% | Active | Active | 80% | Active
20 | CCOC(=O)c1nc(-c2ccc(F)cc2)no1 | 84 | 33.1 | 80% | 80% | 50% | 50% | Active | Active | 80% | 50%
21 | CC(C)(C)OC(=O)N1CCC(C(=O)O)(c2ccc(C(F)(F)F)cc2)CC1 | 96 | 12.9 | 80% | Active | 50% | Active | 50% | 50% | Active | Active
22 | CC(C)(C)OC(=O)N1CCC(CN)(c2cccc(F)c2)CC1 | 65 | 16.1 | 50% | Active | 80% | Active | Active | Active | inactive | Active
23 | Cc1cccc2c(C(C(=O)O)C(F)(F)F)c[nH]c12 (configuration not stated) | 44 | -5.3 | 80% | 80% | 50% | 50% | inactive | 50% | 50% | Active
24 | Nc1cc(F)c(OCC2CCC2)c(F)c1 | 55 | 11.6 | 80% | Active | 50% | Active | 50% | 50% | inactive | inactive
25 | Fc1cccc(-c2nnc3ccc(Br)cn23)c1 | 89 | 7.2 | – | – | – | – | – | – | – | –
